Tests used:
[1] = tested on: MYC-Tp53 tumor organoid allografts; test: MYC-Tp53 tumor organoid allografts; assay type: in vivo, C57BL/6J mice; settings: 30 mg/kg daily oral gavage
Procedure: 300,000 cells per allograft were prepared in 8 mg/mL Matrigel. 6-8-week-old C57BL/6J mice were shaved the day prior to injection. A 26^5/8-gauge needle was used to implant organoids into the flank in 100 μL Matrigel. Tumor allografts were measured daily with calipers, and upon an average volumetric measurement of 100 mm^3, animals were randomized and drug dosing was started. Drugs were dosed daily at 30 mg/kg via oral gavage. Tumor allografts were also measured daily.
MYC-CTNNB1 tumor organoids were engrafted into C57BL/6 mice and treatment was started when tumor volume reached 100 mm^3.

pT367 EZH2 and pT71 ATF2 = settings: WNTinib 1 μM, sorafenib 10 μM; for temporal inhibition of pT367 EZH2 and pT71 ATF2: MYC-CTNNB1 organoids, SB202190 10 μM, 48 hours time course; for modulation of pT367 EZH2 in the four tumor organoid models: 48 hours
Procedure: Tumor organoids were grown in 24 well plates and were collected in Cell Recovery Solution (Corning) after drug treatment. Tumor organoids were left to rotate at 4° C. for one hour in order to dissolve the Matrigel. Tumor organoids were spun down at 300 g at 4° C. for 5 minutes. Pellets were lysed in 2× Laemmli buffer (+4% 2-mercaptoethanol) by heating at 95° C. for 10 minutes followed by 5 seconds of sonication. SDS-PAGE was run using standard procedures.

EZH2 = test: Cellular fractionation, EZH2 localization in MYC-CTNNB1 tumor organoids; assay type: cell-based, mouse; settings: WNTinib 1 μM, sorafenib 10 μM, 24 hours
Procedure: Cells were spun down again at 500 g, 4° C., for 5 minutes in ultra-low attachment 1.5 mL Eppendorf tubes. Cells were resuspended in 100 μL of lysis buffer 1 (50 mM HEPES-KOH, pH 7.5, 140 mM NaCl, 1 mM EDTA, 10% glycerol, 0.5% NP-40, 0.25% Triton X-100, lx protease/phosphatase inhibitors) and agitated at 4° C. for 10 minutes. Lysate was spun at 1,350 g, 4° C., for 5 minutes. The supernatant was saved for the cytoplasmic fraction. The pellet was resuspended in 100 μL of lysis buffer 2 (10 mM Tris-HCl, pH 8.0, 200 mM NaCl, 1 mM EDTA, 0.5 mM EGTA, lx protease/phosphatase inhibitors) and agitated at room temperature for 10 minutes. The supernatant was saved for the nuclear fraction. The pellet was resuspended in 35 μL of lysis buffer 3 (10 mM Tris-HCl, pH 8.0, 100 mM NaCl, 1 mM EDTA, 0.5 mM EGTA, 0.1% Na-Deoxycholate, 0.5% N-lauroylsarcosine, lx protease/phosphatase inhibitors) and agitated at 4° C. for 10 minutes. 1/10 volume of 10% Triton X-100 was added to the lysate, which was spun down at 20,000 g, 4° C., for 10 minutes. Supernatant was taken for chromatin fraction. […] SDS-PAGE was performed using standard procedures.
Next, EZH2 localization in WNTinib sensitive MYC-CTNNB1 and insensitive MYC-Tp53 tumor organoids was investigated. EZH2 localized diffusively in the MYC-CTNNB1 model but was primarily nuclear insoluble in the MYC-Tp53 model (FIG. 6E; lanes 7-9, left and right panels).

[2] = tested on: MYC-lucOS; CTNNB1 mutant HCC; test: Hydrodynamic tail vein model of CTNNB1-mutated HCC, survival; assay type: in vivo, C57/BL6 mice; settings: 5 days on/2 days off
Procedure: A sterile 0.9% NaCl solution/plasmid mix was prepared containing DNA—12 μg of pT3-EF1α-MYC-IRES-luciferase-OS (MYC-lucOS), 10 μg of pT3-N90-CTNNB1 (CTNNB1), and a 4:1 ratio of transposon to SB13 transposase-encoding plasmid. A volume equivalent to 10% of mouse body weight was injected through the tail vein using a 3 mL syringe with a 26-gauge needle (11). Animals were monitored for 6 days, and bioluminescent signal from tumors was visualized using an IVIS Spectrum system. Anesthetized mice were imaged 5 minutes after intraperitoneal injection of 100 mg/kg D-luciferin (Thermo Fisher Scientific). IVIS Living Image software was used to quantify luciferase signal, which was normalized by subtracting background signal. […] Oral drug treatment began in randomized arms seven days after plasmid injection. Kinase inhibitors were prepared as stated above, and WNTinib and sorafenib were dosed at concentrations of 20 mg/kg and 30 mg/kg, respectively. Drugs were administered following a 5 days on/2 days off treatment schedule. Body weights were recorded daily, and animals were monitored for signs of sickness, tumor palpability, and death. Sick animals were sacrificed according to the ISMMS IACUC guidelines.
Given that tumors with dysregulated WNT signaling are associated with tumor immune exclusion and overall are refractory to treatment with immune checkpoint inhibitors, the efficacy of WNTinib was tested in combination with immunotherapy. First, a hydrodynamic tail vein mouse model of MYC-lucOS, CTNNB1 mutant HCC, which is known to be refractory to treatment with anti-PD-1 was used (Ruiz de Galarreta et al., “O-Catenin Activation Promotes Immune Escape and Resistance to Anti-PD-1 Therapy in Hepatocellular Carcinoma,” Cancer Discov. 9(8):1124-1141 (2019), which is hereby incorporated by reference in its entirety). C57/BL6 mice were randomized into treatment groups using IVIS imaging to quantify tumor size based on luminescence signal intensity. After randomization, kinase inhibitors were dissolved in 25% cremaphor:ethanol in water and administered orally (30 mg/kg sorafenib, 20 mg/kg WNTinib) beginning 7 days after injection following a 5 days on/2 days off dosing schedule. Immunotherapy (anti-PD-1) was administered via intraperitoneal injection on days 11, 13, and 15 after injection at […].

SMILES | activity in MYC-Tp53 allografts [1] | temporal inhibition of pT367 EZH2 and pT71 ATF2 (pT367 EZH2 and pT71 ATF2) | modulation of pT367 EZH2 in the four tumor organoid models (pT367 EZH2 and pT71 ATF2) | nuclear partitioning of EZH2 (EZH2) | pT367 EZH2 in the cytoplasm (EZH2) | remaining animals alive, time post final dosing ([2]; WNTinib 20 mg/kg) | share of treatment arm that succumbed to death ([2]; WNTinib 20 mg/kg) | survival benefit ([2]; WNTinib 20 mg/kg) | survival benefit ([2]; sorafenib 30 mg/kg)
CNC(=O)c1cc(Oc2ccc(NC(=O)Nc3ccc(C(F)(F)C(F)(F)F)cc3)c(F)c2)ccn1 [WNTinib, 4-(3-fluoro-4-(3-(4-(perfluoroethyl)phenyl)ureido)phenoxy)-N-methylpicolinamide] | inactive | delayed, but durable inhibition up to 48 hours | inhibited by WNTinib in the MYC-CTNNB1 model | increase in nuclear partitioning of EZH2 | ablated | over 300 days | 40% | significant survival benefit | 
CNC(=O)c1cc(Oc2ccc(NC(=O)Nc3ccc(Cl)c(C(F)(F)F)c3)cc2)ccn1 [sorafenib, reference compound] | better activity | transient inhibition | induced pT367 across several organoid models | did not impact phosphorylation or nuclear to cytoplasmic ratios of EZH2 | did not impact phosphorylation |  |  |  | 7.5 days

Source: patent US20230404985A1, “METHODS OF TREATING TUMORS AND CANCERS HAVING DYSREGULATED WNT SIGNALING PATHWAYS” (ICAHN SCHOOL OF MEDICINE AT MOUNT SINAI, priority 2020, published 2023)
